Laboratory results as given in US9073914B2, “Substituted alkyl pyrimidin-4-one derivatives” (SANOFI, priority 2008, dated 2015).

Columns and labels:
GSK3β = GSK3β (Homo sapiens, UniProt P49841); assay: Inhibitory activity against GSK3β (33P-ATP phosphorylation of prephosphorylated GS1 peptide, four protocols); format: biochemical
Experimental: Test Example:Inhibitory Activity of the Medicament of the Present Invention Against GSK3β Four different protocols can be used. In a first protocol: 7.5 μM of prephosphorylated GS1 peptide and 10 μM ATP (containing 300,000 cpm of ^33P-ATP) were incubated in 25 mM Tris-HCl, pH 7.5, 0.6 mM DTT, 6 mM MgCl2, 0.6 mM EGTA, 0.05 mg/ml BSA buffer for 1 hour at room temperature in the presence of GSK3beta (total reaction volume: 100 microliters). In a second protocol: 4.1 μM of prephosphorylated GS1 peptide and 42 μM ATP (containing 260,000 cpm ^33P-ATP) were incubated in 80 mM Mes-NaOH, pH 6.5, 1 mM Mg acetate, 0.5 mM EGTA, 5 mM 2-mercaptoethanol, 0.02% Tween 20, 10% glycerol buffer for 2 hours at room temperature in the presence of GSK3beta. In a third protocol: 7.5 μM of prephosphorylated GS1 peptide and 10 μM ATP (containing 300,000 cpm of ^33P-ATP) were incubated in 50 mM Hepes, pH 7.2, 1 mM DTT, 1 mM MgCl2, 1 mM EGTA, 0.01% Tween 20 buffer for one hour at room temperature in the presence of GSK3beta (total reaction volume: 100 microliters). […] Incorporated ^33P radioactivity was determined by liquid scintillation spectrometry. […]

Chain of GSK3β (P49841 whole entry): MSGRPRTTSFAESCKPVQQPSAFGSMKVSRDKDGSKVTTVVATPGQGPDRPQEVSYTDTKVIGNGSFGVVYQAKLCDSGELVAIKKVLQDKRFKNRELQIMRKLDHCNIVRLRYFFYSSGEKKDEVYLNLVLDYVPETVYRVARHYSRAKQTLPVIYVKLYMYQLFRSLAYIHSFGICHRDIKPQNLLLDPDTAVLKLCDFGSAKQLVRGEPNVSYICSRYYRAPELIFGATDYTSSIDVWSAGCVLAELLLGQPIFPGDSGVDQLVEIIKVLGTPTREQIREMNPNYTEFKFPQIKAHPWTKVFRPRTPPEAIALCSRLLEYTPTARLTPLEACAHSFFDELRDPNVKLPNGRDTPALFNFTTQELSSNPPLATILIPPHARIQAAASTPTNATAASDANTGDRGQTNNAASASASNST

melting point [°C] | IC50 (GSK3β; protocol 4 (commercial GSK3beta, Millipore; 10 μM ATP; 90 minutes)) [nM] | inhibition of GSK3β (GSK3β; at 1 μM) [%] | Molecule
130 to 132 | 8 | – | O=c1cc(-c2ccncn2)nc2n1CCCCC2C1CC1 (racemic) [Compound No 20 of table 2, (+/−)-10-Cyclopropyl-2-pyrimidin-4-yl-7,8,9,10-tetrahydro-6H-pyrimido[1,2-α]azepin-4-one]
– | – | 63 | (+/−)-9-Ethyl-4-oxo-2-pyrimidin-4-yl-5,6,8,9-tetrahydro-4H-1,4-a,7-triaza-benzocycloheptene-7-carboxylic acid ethyl ester [Compound No 1 of table 3]
